Starred links: 1 amine or outer side, 2 acyl side, 3 side chain; linkers in the order of their positions; H or OH if unused. *: point of attachment. Suc = O=C(CCC(=O)[*:2])[*:1]; Isovaleryl = CC(C)CC(=O)*; Pentanoyl = CCCCC(=O)*
Key:
[1] = system: HIV mutant virus strain HXB2D with mutation Q40H in the gp41 gene; experiment: Standard AVE, HXB2D site directed mutant Q40H; assay type: cell-based, HIV-1; details: fold change vs wild type strain HXB2D
Source text: • Standard Anti-Viral-Experiment “AVE” (wild type HIV strain IIIB+HIV strain HXB2D side directed mutants V38A and Q40H)
The HIV-1 replication assay measures virus replication (HIV wild type virus strain 111B or HXB2D, or a HIV mutant virus strain HXB2D with mutation V38A or Q40H in the gp41 gene) as an induction of enhanced green fluorescent protein (EGFP) expression. The indicator MT4-LTR-EGFP cells contain an EGFP gene under the control of the HIV-1 LTR promoter sequence. Successful HIV-1 infection results in viral Tat protein expression and subsequent induction of EGFP expression. Compounds/peptides inhibiting HIV-1 infection are expected to reduce EGFP expression as compared to the untreated HIV-infected control.
Serial 4-fold dilutions of test compounds/peptides were mixed with HIV-1 (IIIB, HXB2D, or a HXB2D mutant virus (V38A or Q40H)) and MT4-LTR-EGFP cells and incubated at 37° C. After 3 days, the wells were examined for EGFP expression using an argon laser-scanning microscope. The effective compound/peptide concentration inhibiting 50% of the virus-induced EGFP signal (EC50) was determined by linear interpolation of the EGFP signal vs. logarithm of the compound concentration; (T20, C34 and Sifuvirtide were added as reference compounds). For the V38A and Q40H mutant viruses, results were reported as a fold change in EC50, as compared with a drug-susceptible wild type strain HXB2D, which forms the backbone of the mutant virus. • Standard AVE (50% Human Serum)

HIV-IIIB + 50% HS = experiment: Standard AVE (50% Human Serum), HIV-1 replication assay in MT4-LTR-EGFP cells; assay type: cell-based; details: fold change vs EC50 in the assay without human serum
Source text: The HIV-1 replication assay (with 50% human serum) measures virus replication as an induction of enhanced green fluorescent protein (EGFP) expression, in the presence of 50% human serum. The indicator MT4-LTR-EGFP cells contain an EGFP gene under the control of the HIV-1 LTR promoter sequence. Successful HIV-1 infection results in viral Tat protein expression and subsequent induction of EGFP expression. Compounds/peptides inhibiting HIV-1 infection are expected to reduce EGFP expression as compared to the untreated HIV-infected control. Compounds/peptides binding to human serum are expected to have a reduced activity for inhibiting the virus in the assay.
Serial 4-fold dilutions of test compounds/peptides were mixed with HIV-1 and MT4-LTR-EGFP cells and incubated at 37° C., in the presence of 50% human serum. After 3 days, the wells were examined for EGFP expression using an argon laser-scanning microscope. The effective compound/peptide concentration inhibiting 50% of the virus-induced EGFP signal (EC50) was determined by linear interpolation of the EGFP signal vs. logarithm of the compound concentration; T20, C34 and Sifuvirtide were added as reference compounds. Results were reported as a fold change in EC50, as compared with the acquired EC50 in the assay without human serum.

[2] = system: HIV wild type virus strain IIIB; experiment: Standard Anti-Viral-Experiment (AVE), HIV-1 replication assay in MT4-LTR-EGFP cells, wild type IIIB; assay type: cell-based; details: 3 days, EGFP signal
Summary of the method: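 MT4-LTR-EGFP cells infected with HIV-1 IIIB, HXB2D or HXB2D gp41 mutants V38A/Q40H alongside serial 4-fold compound dilutions, 3 days at 37° C. EGFP read by laser-scanning microscopy; EC50 by linear interpolation against log concentration. Mutant results given as fold change in EC50 versus wild-type HXB2D.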

## Suc-ACYLACIEELIRKAQEQQEKNEAALr-NH2 [Peptide 34]
[1]
  HIV-HXB2D Q40H mutant (fold change in EC50): 265
HIV-IIIB + 50% HS
  HIV-IIIB + 50% HS (Fold change in EC50): 0.3
[2]
  EC50: 2 nM

## SUC-ECYLACIEALIRAAQEQQEKNEAALR-NH2 (Suc-ECYLACIEALIRAAQEQQEKNEAALR-NH2; cysteine pairing not given here) [Peptide 33]
[1]
  HIV-HXB2D Q40H mutant (fold change in EC50): 269
HIV-IIIB + 50% HS
  HIV-IIIB + 50% HS (Fold change in EC50): 0.6
[2]
  EC50: 1 nM

## SUC-CYLACIEALIRAAQEQQEKNEAALR-NH2 (Suc-CYLACIEALIRAAQEQQEKNEAALR-NH2; cysteine pairing not given here) [Peptide 26]
[1]
  HIV-HXB2D Q40H mutant (fold change in EC50): 311
HIV-IIIB + 50% HS
  HIV-IIIB + 50% HS (Fold change in EC50): 1
[2]
  EC50: 1 nM

## Ac-ACYAACIEALIRAAQEQQEKNEAALR-NH2 [Peptide 68]
[1]
  HIV-HXB2D Q40H mutant (fold change in EC50): >67
HIV-IIIB + 50% HS
  HIV-IIIB + 50% HS (Fold change in EC50): 2

## Ac-ACYAACIEALIRAAQEQQEKNEAALR-NH2 [Peptide 66]
[1]
  HIV-HXB2D Q40H mutant (fold change in EC50): 231
HIV-IIIB + 50% HS
  HIV-IIIB + 50% HS (Fold change in EC50): 2
[2]
  EC50: 3 nM

## AC-ACYLACIEALIRRAQEQQEKNEAALR-NH2 [Peptide 51]
[1]
  HIV-HXB2D Q40H mutant (fold change in EC50): 93
HIV-IIIB + 50% HS
  HIV-IIIB + 50% HS (Fold change in EC50): 1
[2]
  EC50: 3 nM

## Ac-ECYLACIEELIRKAQEQQEKNEAALR-NH2 [Peptide 37]
[1]
  HIV-HXB2D Q40H mutant (fold change in EC50): 108
HIV-IIIB + 50% HS
  HIV-IIIB + 50% HS (Fold change in EC50): 0.7

## Pentanoyl-ANYAALIEALIRAAQEQQEKNEAALR-NH2 (SMILES CCCCC(=O)N[C@@H](C)C(=O)N[C@@H](CC(N)=O)C(=O)N[C@@H](Cc1ccc(O)cc1)C(=O)N[C@@H](C)C(=O)N[C@@H](C)C(=O)N[C@@H](CC(C)C)C(=O)N[C@H](C(=O)N[C@@H](CCC(=O)O)C(=O)N[C@@H](C)C(=O)N[C@@H](CC(C)C)C(=O)N[C@H](C(=O)N[C@@H](CCCNC(=N)N)C(=O)N[C@@H](C)C(=O)N[C@@H](C)C(=O)N[C@@H](CCC(N)=O)C(=O)N[C@@H](CCC(=O)O)C(=O)N[C@@H](CCC(N)=O)C(=O)N[C@@H](CCC(N)=O)C(=O)N[C@@H](CCC(=O)O)C(=O)N[C@@H](CCCCN)C(=O)N[C@@H](CC(N)=O)C(=O)N[C@@H](CCC(=O)O)C(=O)N[C@@H](C)C(=O)N[C@@H](C)C(=O)N[C@@H](CC(C)C)C(=O)N[C@@H](CCCNC(=N)N)C(N)=O)[C@@H](C)CC)[C@@H](C)CC) [Peptide 14]
[1]
  HIV-HXB2D Q40H mutant (fold change in EC50): >67
HIV-IIIB + 50% HS
  HIV-IIIB + 50% HS (Fold change in EC50): 2
[2]
  EC50: 13 nM

## ENYLALIEALIRAAQEQQEKNEAALR [Peptide 8]
[1]
  HIV-HXB2D Q40H mutant (fold change in EC50): 900
HIV-IIIB + 50% HS
  HIV-IIIB + 50% HS (Fold change in EC50): 0.4
[2]
  EC50: 2 nM

## Suc-ANYLALIEALIRAAQEQQEKNEAALR-NH2 (SMILES CC[C@H](C)[C@H](NC(=O)[C@H](CC(C)C)NC(=O)[C@H](C)NC(=O)[C@H](CCC(=O)O)NC(=O)[C@@H](NC(=O)[C@H](CC(C)C)NC(=O)[C@H](C)NC(=O)[C@H](CC(C)C)NC(=O)[C@H](Cc1ccc(O)cc1)NC(=O)[C@H](CC(N)=O)NC(=O)[C@H](C)NC(=O)CCC(=O)O)[C@@H](C)CC)C(=O)N[C@@H](CCCNC(=N)N)C(=O)N[C@@H](C)C(=O)N[C@@H](C)C(=O)N[C@@H](CCC(N)=O)C(=O)N[C@@H](CCC(=O)O)C(=O)N[C@@H](CCC(N)=O)C(=O)N[C@@H](CCC(N)=O)C(=O)N[C@@H](CCC(=O)O)C(=O)N[C@@H](CCCCN)C(=O)N[C@@H](CC(N)=O)C(=O)N[C@@H](CCC(=O)O)C(=O)N[C@@H](C)C(=O)N[C@@H](C)C(=O)N[C@@H](CC(C)C)C(=O)N[C@@H](CCCNC(=N)N)C(N)=O) [Peptide 7]
[1]
  HIV-HXB2D Q40H mutant (fold change in EC50): 764
HIV-IIIB + 50% HS
  HIV-IIIB + 50% HS (Fold change in EC50): 0.6
[2]
  EC50: 2 nM

## AC-ECYLACIEALIRAAQEQQEKNEAALR-NH2 [Peptide 45]
[1]
  HIV-HXB2D Q40H mutant (fold change in EC50): 64
HIV-IIIB + 50% HS
  HIV-IIIB + 50% HS (Fold change in EC50): 1

## SUC-ACYLACIDELIAKAQEQQEKNEAALR-NH2 (Suc-ACYLACIDELIAKAQEQQEKNEAALR-NH2; cysteine pairing not given here) [Peptide 36]
[1]
  HIV-HXB2D Q40H mutant (fold change in EC50): 373
HIV-IIIB + 50% HS
  HIV-IIIB + 50% HS (Fold change in EC50): 0.4
[2]
  EC50: 2 nM

## Pentanoyl-ECYLRCIEELIRKAQEQQEKNEAALR-NH2 (cysteine pairing not given here) [Peptide 91]
[1]
  HIV-HXB2D Q40H mutant (fold change in EC50): 5
HIV-IIIB + 50% HS
  HIV-IIIB + 50% HS (Fold change in EC50): 5
[2]
  EC50: 1 nM

## ANYLALIEELIRAAQEQQEKNEAALR [Peptide 10]
[1]
  HIV-HXB2D Q40H mutant (fold change in EC50): >695
HIV-IIIB + 50% HS
  HIV-IIIB + 50% HS (Fold change in EC50): 0.4
[2]
  EC50: 4 nM

## Ac-ECYAACIEELIRKAQEQQEKNEAALR-NH2 [Peptide 53]
[1]
  HIV-HXB2D Q40H mutant (fold change in EC50): >164
HIV-IIIB + 50% HS
  HIV-IIIB + 50% HS (Fold change in EC50): 0.3
[2]
  EC50: 21 nM

## ENYLALIEALIRAAQEQQEKNEAALL [Peptide 9]
[1]
  HIV-HXB2D Q40H mutant (fold change in EC50): 1196
HIV-IIIB + 50% HS
  HIV-IIIB + 50% HS (Fold change in EC50): 0.4
[2]
  EC50: 3 nM

## SUC-ACYLACIDELIKKAQEQQEKNEAALR-NH2 (Suc-ACYLACIDELIKKAQEQQEKNEAALR-NH2; cysteine pairing not given here) [Peptide 30]
[1]
  HIV-HXB2D Q40H mutant (fold change in EC50): 145
HIV-IIIB + 50% HS
  HIV-IIIB + 50% HS (Fold change in EC50): 0.5
[2]
  EC50: 1 nM

## Suc-ENYLRLIEELIRKAQEQQEKNEAALR-NH2 (SMILES CC[C@H](C)[C@H](NC(=O)[C@H](CC(C)C)NC(=O)[C@H](CCC(=O)O)NC(=O)[C@H](CCC(=O)O)NC(=O)[C@@H](NC(=O)[C@H](CC(C)C)NC(=O)[C@H](CCCNC(=N)N)NC(=O)[C@H](CC(C)C)NC(=O)[C@H](Cc1ccc(O)cc1)NC(=O)[C@H](CC(N)=O)NC(=O)[C@H](CCC(=O)O)NC(=O)CCC(=O)O)[C@@H](C)CC)C(=O)N[C@@H](CCCNC(=N)N)C(=O)N[C@@H](CCCCN)C(=O)N[C@@H](C)C(=O)N[C@@H](CCC(N)=O)C(=O)N[C@@H](CCC(=O)O)C(=O)N[C@@H](CCC(N)=O)C(=O)N[C@@H](CCC(N)=O)C(=O)N[C@@H](CCC(=O)O)C(=O)N[C@@H](CCCCN)C(=O)N[C@@H](CC(N)=O)C(=O)N[C@@H](CCC(=O)O)C(=O)N[C@@H](C)C(=O)N[C@@H](C)C(=O)N[C@@H](CC(C)C)C(=O)N[C@@H](CCCNC(=N)N)C(N)=O) [Peptide 20]
[1]
  HIV-HXB2D Q40H mutant (fold change in EC50): 80
HIV-IIIB + 50% HS
  HIV-IIIB + 50% HS (Fold change in EC50): 1
[2]
  EC50: 0.7 nM

## Isovaleryl-ANYAALIEALIRAAQEQQEKNEAALR-NH2 (SMILES CC[C@H](C)[C@H](NC(=O)[C@H](CC(C)C)NC(=O)[C@H](C)NC(=O)[C@H](CCC(=O)O)NC(=O)[C@@H](NC(=O)[C@H](CC(C)C)NC(=O)[C@H](C)NC(=O)[C@H](C)NC(=O)[C@H](Cc1ccc(O)cc1)NC(=O)[C@H](CC(N)=O)NC(=O)[C@H](C)NC(=O)CC(C)C)[C@@H](C)CC)C(=O)N[C@@H](CCCNC(=N)N)C(=O)N[C@@H](C)C(=O)N[C@@H](C)C(=O)N[C@@H](CCC(N)=O)C(=O)N[C@@H](CCC(=O)O)C(=O)N[C@@H](CCC(N)=O)C(=O)N[C@@H](CCC(N)=O)C(=O)N[C@@H](CCC(=O)O)C(=O)N[C@@H](CCCCN)C(=O)N[C@@H](CC(N)=O)C(=O)N[C@@H](CCC(=O)O)C(=O)N[C@@H](C)C(=O)N[C@@H](C)C(=O)N[C@@H](CC(C)C)C(=O)N[C@@H](CCCNC(=N)N)C(N)=O) [Peptide 17]
[1]
  HIV-HXB2D Q40H mutant (fold change in EC50): >37
HIV-IIIB + 50% HS
  HIV-IIIB + 50% HS (Fold change in EC50): 0.9
[2]
  EC50: 24 nM

## SWETWEREIENYTRQIYRILEESQEQQDRNERDLLE [Sifuvirtide, reference compound]
[1]
  HIV-HXB2D Q40H mutant (fold change in EC50): 2
[2]
  EC50: 2 nM

## Suc-ECYLACIEELIRKAQEQQEKNEAALR-NH2 (cysteine pairing not given here) [Peptide 90]
[1]
  HIV-HXB2D Q40H mutant (fold change in EC50): 65
[2]
  EC50: 1 nM
